Tests used:
[1] = system: matrix remodeling genes (mmp9, mmp16, mmp12, mmp2, mmp14); assay: Expression of matrix remodeling genes in organotypic cortical brain slice cultures; type: cell-based, mice
Protocol: (§1) The treatment of organotypic cortical brain slice cultures from adult mice with Compound A for 48 h was associated with reductions in expression of matrix remodeling genes (mmp9, mmp16, mmp12; n=3-9, see FIG. 1A showing results of dosing of Compound A at 5 nM, 50 nM, 500 nM, and 5 μM) and total MMP12 protein (n=3-6, see FIG. 1B showing results of dosing of Compound A at 5 nM, 50 nM, 500 nM, and 5 μM).
(§2) The treatment of organotypic cortical brain slice cultures from adult mice with Compound B for 48 h was associated with reductions in expression of cytokine genes (egfr, i16ra, csf1r, illr1, plekho2; n=3, see FIG. 3A showing results of dosing of Compound B at 2 μM, and 20 μM) and matrix remodeling genes (mmp12, mmp2, mmp16, mmp14; n=3, see FIG. 3B showing results of dosing of Compound B at 2 μM, and 20 μM).
(§3) The treatment of organotypic brain mice cultures from adult mice with Compound C for 72 h was associated with reductions in expression of cytokine genes (egfr, i16ra, csf1r, plekho2; n=2, See FIG. 5A showing results of dosing of Compound C at 0.1 μM, 0.3 μM, and 10 μM), matrix remodeling genes (mmp12, mmp16; n=2, See FIG. 5B for results of dosing of compound C at 0.1 μM, 0.3 μM, and 10 μM), and astrocyte genes (egfr, ai464131, gdpd2, adh1l1; n=2, See FIG. 5C for results of dosing of compound C at 0.1 μM, 0.3 μM, and 10 μM), and increases in expression of neuronal marker genes (tbr1, dlx1, slc17a6, islr2; n=2, See FIG. 5D for results of dosing of compound C at 0.1 μM, 0.3 μM, and 10 μM).

[2] = system: cytokine genes; assay: Expression of cytokine genes in organotypic cortical slice cultures; type: cell-based, mice
Protocol: (§4) The treatment of organotypic cortical slice cultures with Compound A for 48 h was associated with reductions in expression of cytokine genes (cx3cl1, tgfbr2, i14ra, tgfb1, tnfrsf10b, csf1r, egfr, fit1, flt4, ccl12; n=3-9, see FIG. 2A showing results of dosing of Compound A at 5 nM, 50 nM, 500 nM, and 5 μM) and pro-inflammatory cytokines like IL-33 (n=3-6, see FIG. 2B showing results of dosing of Compound A at 50 nM, 500 nM, and 5 μM).
as §2, §3

[3] = system: astrocyte marker genes; assay: Expression of astrocyte marker genes in organotypic cortical brain slice cultures; type: cell-based, mice
Protocol: (§5) The treatment of organotypic cortical brain slice cultures from adult mice with Compound B for 48 h was associated with reductions in expression of astrocyte marker genes (egfr, AI464131, Itga7, Gdpd2, Sox9, Aldh1l1, Entpd2; n=3, see FIG. 4A showing results of dosing of Compound B at 2 μM, and 20 μM) and increases in expression of neuronal marker genes (tbr1, Dlx1, Slc17a6, Islr2; n=3, see FIG. 4B showing results of dosing of Compound B at 2 μM, and 20 μM).
as §3

[4] = system: neuronal marker genes; assay: Expression of neuronal marker genes in organotypic cortical brain slice cultures; type: cell-based, mice
Protocol: as §5, §3

[5] = system: MMP12 protein; assay: Total MMP12 protein in organotypic cortical brain slice cultures; type: cell-based; settings: organotypic cortical brain slice cultures from adult mice, 48 h, 5 nM, 50 nM, 500 nM, 5 μM; significant dose-dependence; FIG. 1B
Protocol: as §1

[6] = system: IL-33; assay: Pro-inflammatory cytokine IL-33 in organotypic cortical slice cultures; type: cell-based, mice; settings: 48 h, 50 nM, 500 nM, 5 μM, FIG. 2B
Protocol: as §4

## O=S(=O)(O)c1ccc2cc(/N=N/c3cc(S(=O)(=O)O)c4cccnc4c3O)ccc2c1 [Compound B]
[1]; organotypic cortical brain slice cultures from adult mice, 48 h, 2 μM and 20 μM, FIG. 3B
  expression of matrix remodeling genes (mmp12, mmp2, mmp16, mmp14): reductions
[2]; organotypic cortical brain slice cultures from adult mice, 48 h, 2 μM and 20 μM, FIG. 3A
  expression of cytokine genes (egfr, i16ra, csf1r, illr1, plekho2): reductions
[3]; organotypic cortical brain slice cultures from adult mice, 48 h, 2 μM and 20 μM, FIG. 4A
  expression of astrocyte marker genes (egfr, AI464131, Itga7, Gdpd2, Sox9, Aldh1l1, Entpd2): reductions
[4]; organotypic cortical brain slice cultures from adult mice, 48 h, 2 μM and 20 μM, FIG. 4B
  expression of neuronal marker genes (tbr1, Dlx1, Slc17a6, Islr2): increases

## CC1(N)CCN(c2cnc3c(-c4cccc(Cl)c4Cl)n[nH]c3n2)CC1 [Compound C]
[1]; organotypic brain cultures from adult mice, 72 h, 0.1 μM, 0.3 μM, 10 μM, FIG. 5B
  expression of matrix remodeling genes (mmp12, mmp16): reductions
[2]; organotypic brain cultures from adult mice, 72 h, 0.1 μM, 0.3 μM, 10 μM, FIG. 5A
  expression of cytokine genes (egfr, i16ra, csf1r, plekho2): reductions
[3]; organotypic brain cultures from adult mice, 72 h, 0.1 μM, 0.3 μM, 10 μM, FIG. 5C
  expression of astrocyte genes (egfr, ai464131, gdpd2, adh1l1): reductions
[4]; organotypic brain cultures from adult mice, 72 h, 0.1 μM, 0.3 μM, 10 μM, FIG. 5D
  expression of neuronal marker genes (tbr1, dlx1, slc17a6, islr2): increases

## Cc1nc(N2CCC3(CC2)CO[C@@H](C)[C@H]3N)c(CO)nc1-c1cccc(Cl)c1Cl [Compound A]
[1]; organotypic cortical brain slice cultures from adult mice, 48 h, 5 nM, 50 nM, 500 nM, 5 μM, significant dose-dependence, FIG. 1A
  expression of matrix remodeling genes (mmp9, mmp16, mmp12): reductions
[5]
  total MMP12 protein: reductions
[2]; organotypic cortical slice cultures, 48 h, 5 nM, 50 nM, 500 nM, 5 μM, FIG. 2A
  expression of cytokine genes (cx3cl1, tgfbr2, i14ra, tgfb1, tnfrsf10b, csf1r, egfr, fit1, flt4, ccl12): reductions
[6]
  expression of pro-inflammatory cytokines like IL-33: reductions

— US20220296616A1, “SHP1 AND SHP2 INHIBITORS AND THEIR METHODS OF USE” (Tiaki Therapeutics Inc., priority 2019, published 2022)
